The test system of series [1] is patients with lower eyelid puffiness. The series is described as follows: Treatment of lower eyelid puffiness with hyaluronidase and collagenase, visual assessment (Example 7). Format: in vivo, human. The settings on record: one patient per composition; 100 U to each of five sites in the lower eyelid fat pads; assessed 2 weeks to 1 year after administration. The procedure: Patient A (a person), Patent B (a person), and Patent C (a person) presented with lower eyelid puffiness.
Briefly, Patient A was administered a composition comprising Hylenex by injections of 100 U to each of five sites in the lower eyelid fat pads, Patient B was administered a composition comprising a collagenase by injections of 100 U to each of five sites in the lower eyelid fat pads, and Patient C was administered a composition comprising Hylenex and a collagenase by injections of 100 U to each of five sites in the lower eyelid fat pads. The injections were performed using a 0.5 ml syringe having a 32-gauge needle.
Each patient's lower eyelid puffiness was visually assessed 2 weeks, 1 month, 2 months, 4 months, 6 months, and 1 year after administration of the compositions.

Series [2] relates to patient with peri-orbital puffiness due to edema. The series is described as follows: Treatment of peri-orbital puffiness due to peri-orbital edema using 4-MU (Example 5). Format: in vivo, human. The procedure:
A patient with peri-orbital puffiness due to edema (edema not due to a hyaluronic acid filler) of the peri-orbital soft tissues or edema of the eyelid fat pads was treated with a composition comprising 25 mg/mL 4-methylumbelliferone (4-MU). Briefly, four injections were administered in the peri-orbital soft tissues and edematous orbital fat pads. The injections were performed using a 0.5 ml syringe having a 32-gauge needle inserted parallel to the globe, angling away from the globe, to avoid injury to the globe. An improvement in the extent of peri-orbital puffiness due to peri-orbital edema was observed within the first 15-60 minutes after the injections. […] Although there was recurrence of some of the edema, there was an improvement up to 3 months.

The test system is the same in series [3]. The series is described as follows: Treatment of peri-orbital puffiness due to peri-orbital edema using a hyaluronidase (Example 2). Format: in vivo, human. The settings on record: four injections, 10 units in each fat pad. The protocol: A patient with peri-orbital puffiness due to edema (edema not due to a hyaluronic acid filler) of the peri-orbital soft tissues or edema of the eyelid fat pads was treated with a composition comprising a hyaluronidase (e.g., Hylenex). Briefly, four injections were administered in the peri-orbital soft tissues and edematous orbital fat pads using a dosage of 10 units injected in each fat pad (in the case of edema of the fat pads). The injections were performed using a 0.5 ml syringe having a 32-gauge needle inserted parallel to the globe, angling away from the globe, to avoid injury to the globe.
An improvement in the extent of peri-orbital puffiness due to peri-orbital edema was observed within the first 15-60 minutes after the injections. […] Although there was recurrence of some of the edema, there was an improvement up to 3 months.

The subject of series [4] is patients with inflammation due to stasis dermatitis. The series is described as follows: Treatment of inflammation due to stasis dermatitis, severity grade (Example 6). Format: in vivo, human. Also on record: key: 4 (severe); 3 (moderate); 2 (mild); 1 (quiescent); 0 (normal). To be noted: one week after treatment, 500 units at five points on the ankle. The protocol: Patients with inflammation due to stasis dermatitis (Patient A, B, and C) on their lower legs were treated with Hylenex and the change in severity of their inflammation was measured after treatment.
Briefly, the severity of inflammation on a target area of each patient's ankle was first graded on the following scale: 4 (severe), 3 (moderate), 2 (mild), 1 (quiescent), or 0 (normal). Patient A scored a 4 prior to treatment, Patient B scored a 3 prior to treatment, and Patient C scored a 3 prior to treatment.
Next, 500 units of hylenex was injected at five different points into an area on each patient's ankle. The injections were performed using a 0.5 ml syringe having a 32-gauge needle. All patients were followed post injection, at one day and one week. Patient A's inflammation was classified as a 2 one week after treatment, Patient B's inflammation was classified as a 2 one week after treatment, and Patient C's inflammation was classified as a 2 one week after treatment.

The subject of series [5] is patients with scleroderma on their arms. The series is described as follows: Treatment of fibrosis (scleroderma on arms), severity grade (Example 8). Format: in vivo, human. To be noted: five patients; average prior to treatment moderate; five injection points in a 10×10 cm area; followed one day to six months. The protocol:
Five patients with scleroderma on their arms were treated with Hylenex and the change in severity of their fibrosis was measured after treatment. Briefly, the severity of scleroderma on a target area of on each patient was first graded using as either severe, moderate, mild, or none. Overall scores for patients' arms prior to treatment averaged as moderate.
Next, Hylenex was injected at five different points into a 10×10 cm area of scleroderma on the patient's arm. The injections were performed using a 0.5 ml syringe having a 32-gauge needle. All patients were followed post injection, at one day, one week, one, three, and six months.

Another series relates to Demyelinated neurons. The series is described as follows: Treatment of demyelinated neurons in culture, microscopy (Example 9). Format: cell-based. To be noted: 10 U/mL; after 14 days; 24-well plate. The procedure: Demyelinated neurons were grown to confluence in culture and then transferred to a 24-well cell culture plate (Sigma) in a volume of 2 mL. 10 U/mL of Hylenex was added to each well.

The subject of another series is patients with jowls. The series is described as follows: Treatment of jowls, severity grade (Example 10). Format: in vivo, human. To be noted: Patients A, B and C, injected at seven points. The procedure:
Patients with jowls (Patient A, B, and C) were treated with Hylenex and the change in severity of their jowls was measured after treatment. Briefly, the severity of jowls in Patients A-C was assessed on a scale of severe, moderate or mild. Patient A and B presented with severe jowls while Patient C presented with mild jowls.
Next, Hylenex was injected at seven different points into an area of skin on each patients with jowls. The injections were performed using a 0.5 ml syringe having a 32-gauge needle. All patients were followed post injection, at one day, one week, one, three, and six months.

The subject of series [6] is patients with peri-orbital puffiness due to edema of the eyelid fat pads. The series is described as follows: Treatment of peri-orbital puffiness due to peri-orbital edema using HYLENEX, PEFAS and Subjective Patient Score (Example 12). Format: in vivo, human. The source says:
The Peri-orbital and Eyelid Fullness Assessment Scale (PEFAS or Sweis-Scale) defines the etiology of the upper and/or lower eyelid fullness to determine the best and safest course of treatment. It determines whether the fullness is secondary to pseudoherniation of the upper and/or lower eyelid fat pads, secondary to edema of the eyelid soft tissues, secondary to edema of the fat pads, or secondary to a combination of pseudoherniation of the fat pads with edema of the fat pads, and/or edema of the peri-orbital soft tissues. The PEFAS score is represented as the findings in the right upper eyelid/the findings in the lower eyelid and the findings in the left upper eyelid/the findings in the lower eyelid.
Four patients (Patients A-D) with peri-orbital puffiness due to edema (as identified in Example 1) of the eyelid fat pads were scored as a Grade 1E, 2E, 3E, or 3+E on the Peri-orbital Fullness Assessment Scale. A score was given to the upper and lower eyelids in the patient's left and right eye. Patient A's eyes were scored on the PEFAS scale as a L 0/3E (left eye; upper eyelid over lower eyelid) and a R 0/3E (right eye; upper eyelid over lower eyelid). Patient B was scored as a L 2E/2E and a R 2E/2E. Patient C was scored as a L 1/3E and a R 0/3E and Patient D was scored as a L 2E/3+E and a R 2E/3+E.
The patients were subsequently treated with HYLENEX. […] The injections were performed using a 0.5 ml syringe having a 31-gauge needle inserted parallel to the globe, angling away from the globe, to avoid injury to the globe. Specifically, three injections were made into the medial eyelid fat pad, two into the central eyelid fat pad, and three into the lateral eyelid fat pad at a depth of about 6 mm, 8 mm, and 6 mm, respectively. Additionally Patients B and C received 3 to 5 injections in the peri-orbital soft tissues (e.g., the malar region) at a depth of between about 5 to about 10 mm.
After treatment, Patient C was followed for 1 month, Patient D was followed for 2 months, and Patients A and B were followed for 3 months.
After treatment, the patient's eyes were scored on the PEFAS scale. Patient A's eyes were scored on the PEFAS scale as a L 0/0 (left eye; upper eyelid over lower eyelid) and a R 0/0E (right eye; upper eyelid over lower eyelid). Patient B was scored as a L 2E/1E and a R 2E/1. Patient C was scored as a L 1E/1E and a R 0/1 and Patient D was scored as a L 2E/0E and a R 2E/0.
Each patient was given an initial Subjective Patient Score of 10. The Subjective Patient Score is based on a scale of 1 to 10 with 10 being the subject's observed starting amount of peri-orbital puffiness and 0 being no puffiness. Each of the patients scored their puffiness between as a 3 or 4 at 2 weeks, 3 months, and 6 months after their initial treatment.

On to collagenase, for which the “lower eyelid puffiness, visual assessment” value in series [1] is listed as “did not exhibit any reduction in lower eyelid puffiness”.
`Cc1cc(=O)oc2cc(O)ccc12` [4-methylumbelliferone]: the adverse effects result in series [2] (one patient followed for 6 months, 25 mg/mL, four injections) is “without any adverse effects”. The “duration of overall reduction in peri-orbital puffiness due to peri-orbital edema compared to pre-treatment” value in series [2] (one patient followed for 6 months, 25 mg/mL, four injections, recurrence of some of the edema) was “up to 3 months”. The “time after the injections within which an improvement in the extent of peri-orbital puffiness due to peri-orbital edema was observed” value in series [2] (one patient, four injections of a composition comprising 25 mg/mL) is 15 to 60 min.
With “Hylenex: recombinant preparation of human hyaluronidase; soluble fragment of human hyaluronidase (PH20), 447 amino acids, SEQ ID NO: 1”, the adverse effects entry in series [3] (one patient followed for 6 months) is “without any adverse effects”; in series [6] (Patients A-D followed for up to 6 months, 30U per fat pad), “without any adverse effects”. Also, in series [3] (one patient followed for 6 months, recurrence of some of the edema), the “duration of overall reduction in peri-orbital puffiness due to peri-orbital edema compared to pre-treatment” value was “up to 3 months”. For the same compound, the “time after the injections within which an improvement in the extent of peri-orbital puffiness due to peri-orbital edema was observed” value in series [3] (one patient) lay within 15 to 60 min. Also, the “severity of inflammation (scale 0-4) after treatment” value was determined as 2 in series [4] (Patient A, 4 prior to treatment); 2 in series [4] (Patient B, 3 prior to treatment); 2 in series [4] (Patient C, 3 prior to treatment). In addition, the “lower eyelid puffiness, visual assessment” value in series [1] is on record as “reduction in lower eyelid puffiness”. Also, in series [5], the “overall severity score of scleroderma post-treatment (severe, moderate, mild, none)” value is “mild”. The “myelination of neurons by microscopy” value with Demyelinated neurons is reported as “remyelinated neurons”. In addition, in the series on patients with jowls, the “duration of effect on jowls” value is recorded as “more than six months”. In addition, the “severity of jowls (severe, moderate or mild) after treatment” value with patients with jowls (one day after treatment, A and B severe, C mild before) is recorded as “mild jowls”. Also, the “PEFAS score after treatment (upper eyelid over lower eyelid)” value in series [6] (Patient A, left eye, L 0/3E before treatment) is given as 0/0; in series [6] (Patient C, right eye, R 0/3E before treatment) it was 0/1. The “time over which a reduction in peri-orbital puffiness is still exhibited” value in series [6] (Patients A-D, 30U per fat pad) is “up to 6 months”. Besides, in series [6] (each of Patients A-D, 30U per peri-orbital fat pad exhibiting edema), the “time after the injections within which an improvement in the extent of peri-orbital puffiness was exhibited” value was 15 to 60 min. Moreover, in series [6] (each of Patients A-D, followed 1 month (C), 2 months (D), 3 months (A and B), 30U per fat pad), the “peri-orbital (eye) puffiness compared to pre-treatment” value is listed as “marked reduction”.

The values above are taken from patent publication US20240156920A1, “COMPOSITIONS COMPRISING HYALURONIDASE AND/OR COLLAGENASE AND/OR 4-METHYLUMBELLIFERONE (4-MU) AND METHODS OF TREATMENT USING SAME” (STANDARD OF CARE CORPORATION, priority 2019, published 2024).
